Test results published in patent US8501813B2, “γ-secretase inhibitor” (Kabushiki Kaisha Yakult Honsha, priority 2007, dated 2013).

Molecular target: γ-secretase (Homo sapiens, UniProt P49768)
Test: Substrate specificity: FLAG-Aβ secretion by HEK293 cells transfected with FLAG APP C99, anti-FLAG immunoprecipitation/western blot
Assay type: cell-based
Settings: 0.2 μmol/L; for activity at 0.2 µM: HEK293, 24 h, FLAG APP C99, negative control = 100%, read-out: (i) Aβ secretion rate of HEK293 cells
Method: Of families constituting human Alcadein (hereinafter, referred to as Alc) known as a substrate for γ-secretase to colocalize with APP in brain neurons, an artificial Alcα fragment (hereinafter, referred to as Alcα C150) whose first extracellular cleavage site and γ-secretase cleavage site were determined was used to study the substrate specificity of the γ-secretase inhibitor of the present invention. β-Alcα produced from a first cleavage construct of Alcα cannot be quantified by sELISA used in Aβ measurement. Therefore, proteins with an attached FLAG tag at the N termini of first cleavage constructs of Alcα and of C99 were expressed by cells. FLAG-Aβ-like peptides secreted into a medium were collected by immunoprecipitation using anti-FLAG antibodies and detected by western blotting using the antibodies. A specific method thereof is shown below.
HEK293 cells (ATCC) (1×10^7 cells/10 cm dish) cultured in 6 ml of 10% FCS-containing DMEM (Wako Pure Chemical Industries, Ltd.) were transfected with FLAG APP C99 pcDNA3.1 (the nucleotide sequence of its coding region is shown in SEQ ID NO: 2) (J. Biol. Chem., 2003, 278, 49448-49458 (which was prepared from pcDNA3-APPC99)) or with FLAG Alcα C150 pcDNA3.1 (the nucleotide sequence of its coding region is shown in SEQ ID NO: 3) (J. Biol. Chem., 2004, 279, 24343-24354 (which was the same as pcDNA3AlcαΔE)) using Lipofectamine 2000 (Invitrogen Corp.) according to the protocol included in the reagent. Each inhibitor and a positive control (γ-Secretase Inhibitor IX (DAPT)) (Calbiochem Contact Information) were separately added at a concentration of 0.2 or 2 μmol/L. The same dose of DMSO (Wako Pure Chemical Industries, Ltd.) thereas was added as a negative control. 24 hours later, the culture supernatants were collected, and samples were preliminarily purified using beads (100 μL of 50% (v/v) Protein-G Sepharose (GE Healthcare)). Then, 15 μL of 50% (v/v) anti-FLAG antibody M2 beads (Sigma-Aldrich Corp.) were added thereto, and the samples were incubated at 4° C. for 1 hour. The beads were collected by centrifugation and washed three times with a buffer (10 mM Tris-HCl [pH 8.0], 140 mM NaCl, 0.1% n-octyl glucoside, 0.025% sodium azide), and Aβ and β-Alcα in the medium were collected. The proteins were subjected to SDS-PAGE using a 15% Tris-Tricine gel (Anal Biochem., 1987, 166 (2), 368-379) and then transferred to a membrane. The membrane was boiled for 5 minutes in PBS. Then, anti-FLAG M2 antibodies (5 μg/ml) (Sigma-Aldrich Corp.) were added thereto, and the membrane was incubated, followed by detection using a western blotting detection reagent ECL (GE Healthcare). This signal was quantified using Versa-doc system (Bio-Rad Laboratories, Inc.) to calculate protein secretion rates (the protein secretion rate of the negative control is defined as 100%).

SMILES	(i)/(ii) ratio, Aβ / β-Alcα secretion rates	cleavage of APP-C99, in words	activity at 0.2 µM [%]
CSCCC(NC(=O)C(NC(=O)C(CC(C)C)CC(O)C(NC(=O)OC(C)(C)C)C(C)O)C(C)C)C(=O)NCc1ccc(F)cc1 [TLVM-9, [5S-(tert-butoxycarbonylamino)-4R,6R-dihydroxy-2R-(2-methylpropyl)heptanoyl]-L-valyl-L-methionine 4-fluorobenzylamide]	0.27	specifically inhibited	43
CSCCC(NC(=O)C(NC(=O)C(CC(C)C)CC(O)C(NC(=O)OC(C)(C)C)C(C)O)C(C)C)C(=O)NCc1ccccc1 [TLVM-5, [5S-(tert-butoxycarbonylamino)-4R,6R-dihydroxy-2R-(2-methylpropyl)heptanoyl]-L-valyl-L-methionine benzylamide]	0.29	specifically inhibited	41
CSCCC(NC(=O)C(NC(=O)C(CC(C)C)CC(O)C(NC(=O)OC(C)(C)C)C(C)O)C(C)C)C(=O)NC(C)c1ccccc1 [TLVM-8, [5S-(tert-butoxycarbonylamino)-4R,6R-dihydroxy-2R-(2-methylpropyl)heptanoyl]-L-valyl-L-methionine (S)-α-methylbenzylamide]	0.27	specifically inhibited	32
CCCCNC(=O)C(CCSC)NC(=O)C(NC(=O)C(CC(C)C)CC(O)C(NC(=O)OC(C)(C)C)C(C)O)C(C)C [TLVM-7, [5S-(tert-butoxycarbonylamino)-4R,6R-dihydroxy-2R-(2-methylpropyl)heptanoyl]-L-valyl-L-methionine n-butylamide]	0.30	specifically inhibited	36
